Measurements from ChEMBL document CHEMBL4130519, “Resorcinol-Based Grp94-Selective Inhibitors” (ACS Med Chem Lett, 2017).

Assays:
RPMI-8226 = test: Growth inhibition of human RPMI8226 cells after 72 hrs by MTS/PMS assay; assay type: functional; details: RPMI-8226, 72 h
Endoplasmin = Endoplasmin (Canis lupus familiaris, UniProt P41148); test: Displacement of FITC-GDA from recombinant canine Grp94 expressed in baculovirus infected Sf21 insect cells after 24 hrs by fluorescence polarization assay; details: read-out: Kd(app)
[1] = target: Heat shock protein HSP 90-alpha (Homo sapiens, UniProt P07900); test: Displacement of FITC-GDA from Hsp90alpha (unknown origin) after 24 hrs by fluorescence polarization assay; details: read-out: Kd(app)
Heat shock protein HSP90 [2] = target: T1, Heat shock protein HSP90 (Homo sapiens, UniProt P07900+P08238); test: Inhibition of Hsp90 in human RPMI8226 cells assessed as induction of Akt degradation at 0.75 to 7.5 uM after 24 hrs by Western blot analysis; assay type: cell-based
Heat shock protein HSP90 [3] = target: T1, Heat shock protein HSP90; test: Inhibition of Hsp90 in human RPMI8226 cells assessed as induction of Hsp70 expression at 0.75 to 7.5 uM after 24 hrs by Western blot analysis; assay type: cell-based

Endoplasmin, sequence (P41148 whole entry): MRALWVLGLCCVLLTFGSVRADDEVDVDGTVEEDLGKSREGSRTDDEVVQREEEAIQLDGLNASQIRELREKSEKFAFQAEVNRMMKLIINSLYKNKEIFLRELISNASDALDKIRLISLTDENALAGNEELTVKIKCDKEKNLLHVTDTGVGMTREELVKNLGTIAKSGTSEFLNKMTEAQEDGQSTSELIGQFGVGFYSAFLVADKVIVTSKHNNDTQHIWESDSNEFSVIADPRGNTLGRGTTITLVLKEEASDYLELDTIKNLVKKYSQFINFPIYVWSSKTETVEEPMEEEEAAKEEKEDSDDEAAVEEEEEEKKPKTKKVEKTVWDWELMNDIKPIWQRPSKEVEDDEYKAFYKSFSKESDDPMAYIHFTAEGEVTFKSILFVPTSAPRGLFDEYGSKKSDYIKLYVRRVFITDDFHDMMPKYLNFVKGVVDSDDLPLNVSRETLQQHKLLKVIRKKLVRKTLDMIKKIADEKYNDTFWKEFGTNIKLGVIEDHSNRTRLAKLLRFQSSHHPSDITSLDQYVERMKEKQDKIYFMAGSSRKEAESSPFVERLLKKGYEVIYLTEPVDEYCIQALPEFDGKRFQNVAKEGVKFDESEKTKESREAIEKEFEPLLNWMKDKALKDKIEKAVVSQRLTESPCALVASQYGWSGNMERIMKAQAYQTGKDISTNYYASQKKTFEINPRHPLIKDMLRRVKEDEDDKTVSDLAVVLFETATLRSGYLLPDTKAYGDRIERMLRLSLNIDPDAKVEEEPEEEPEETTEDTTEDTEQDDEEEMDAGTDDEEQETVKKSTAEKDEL

COC(=O)c1c(O)cc(O)c(Cl)c1CCc1nccn1Cc1ccccc1
GI50 (RPMI-8226): 10200 nM

Cc1ccc(Sc2cc(C(=O)N3Cc4ccccc4C3)c(O)cc2O)cc1C
Kd (Endoplasmin): 21 nM
Kd [1]: 66 nM

O=C(c1cc(Sc2ccccc2)c(O)cc1O)N1Cc2ccccc2C1
Kd (Endoplasmin): 13 nM
Kd [1]: 26 nM

O=C(c1cc(Sc2ccccc2O)c(O)cc1O)N1Cc2ccccc2C1
Kd (Endoplasmin): 29 nM
Kd [1]: 65 nM

O=C(c1cc(Sc2ccc(Cl)cc2Cl)c(O)cc1O)N1Cc2ccccc2C1
Kd (Endoplasmin): 59 nM
Kd [1]: 460 nM

Cc1ccc(Cc2cc(C(=O)N3Cc4ccccc4C3)c(O)cc2O)cc1
Kd (Endoplasmin): 40 nM
Kd [1]: 40 nM
GI50 (RPMI-8226): 2700 nM

O=C(c1cc(Sc2ccc(O)cc2)c(O)cc1O)N1Cc2ccccc2C1
Kd (Endoplasmin): 70 nM
Kd [1]: 52 nM

O=C(c1cc(Br)c(O)cc1O)N1Cc2ccccc2C1
Kd (Endoplasmin): 20 nM

O=C(c1cc(-c2ccccc2)c(O)cc1O)N1Cc2ccccc2C1
Kd (Endoplasmin): > 100000 nM
Kd [1]: > 100000 nM
GI50 (RPMI-8226): > 25000 nM

O=C(c1cc(N2CCc3ccccc32)c(O)cc1O)N1Cc2ccccc2C1
Kd (Endoplasmin): 9890 nM
Kd [1]: > 50000 nM

O=C(c1cc(Sc2cc(Cl)cc(Cl)c2)c(O)cc1O)N1Cc2ccccc2C1
Kd (Endoplasmin): 31 nM
Kd [1]: 29 nM

Cc1ccc(Sc2cc(C(=O)N3Cc4ccccc4C3)c(O)cc2O)c(C)c1
Kd (Endoplasmin): 30 nM
Kd [1]: 70 nM

O=C(c1cc(Cc2ccc(Cl)cc2)c(O)cc1O)N1Cc2ccccc2C1
Kd (Endoplasmin): 13 nM
Kd [1]: 60 nM
GI50 (RPMI-8226): 3000 nM

COC(=O)c1cc(C(=O)N2Cc3ccccc3C2)c(O)cc1O
Kd (Endoplasmin): > 10000 nM
Kd [1]: > 10000 nM
GI50 (RPMI-8226): 13800 nM

O=C(c1cc(Cc2ccccc2Cl)c(O)cc1O)N1Cc2ccccc2C1
Kd (Endoplasmin): 60 nM
Kd [1]: 200 nM

O=C(c1cc(Cc2ccccc2)c(O)cc1O)N1Cc2ccccc2C1
Kd (Endoplasmin): 15 nM
Kd [1]: 66 nM
GI50 (RPMI-8226): 3700 nM

O=C(c1cc(Cc2ccc(F)cc2)c(O)cc1O)N1Cc2ccccc2C1
Kd (Endoplasmin): 8 nM
Kd [1]: 77 nM
GI50 (RPMI-8226): 1400 nM
inhibition (INH) (Heat shock protein HSP90 [2]): Not Active
inhibition (INH) (Heat shock protein HSP90 [3]): Not Active

COc1cccc(Sc2cc(C(=O)N3Cc4ccccc4C3)c(O)cc2O)c1
Kd (Endoplasmin): 34 nM
Kd [1]: 37 nM
GI50 (RPMI-8226): 1900 nM

CCOC(=O)c1cc(C(=O)N2Cc3ccccc3C2)c(O)cc1O
Kd (Endoplasmin): 770 nM
Kd [1]: 3520 nM

Cc1ccc(C)c(Sc2cc(C(=O)N3Cc4ccccc4C3)c(O)cc2O)c1
Kd (Endoplasmin): 29 nM
Kd [1]: 31 nM

COC1=C2C[C@@H](C)C[C@H](OC)[C@H](O)[C@@H](C)/C=C(\C)[C@H](OC(N)=O)[C@@H](OC)/C=C\C=C(/C)C(=O)NC(=CC1=O)C2=O [GELDANAMYCIN]
GI50 (RPMI-8226): 3 nM
